Data taken from EP4714947A1, “CRYSTAL FORM OF PYRIMIDO AZACYCLO COMPOUND, AND PREPARATION METHOD THEREFOR AND USE THEREOF” (TYK Medicines, Inc., priority 2023, dated 2024).
In brackets after ≈: the same amount, converted by molar mass. Read-outs that look alike come from different tables or passages of the source.

Key:
[1] = system: tumor patients with RET fusion and mutation; settings: cited from earlier work
[2] = Pharmacokinetics in rats after a single dose by gavage; settings: for in vivo exposure levels: rat pharmacokinetic data, compared with free base crystal form I; for AUC0-last / AUCINF / Cmax / T1/2 / Tmax: SD rats, single gavage dose 10mpk, 1mg/ml in 0.5% MC+1% tween 80 (Uniform suspension), 10 mg/kg
Procedure: (§1) Blood samples were collected at different time points to determine the drug concentration in the rat plasma after administration of the test substance and relevant pharmacokinetic parameters were calculated.
(§2) The specific preparation method was as follows: 10mg of the test sample was taken, 0.5% MC and 1% Tween 80 was added, the resulting mixture was vortex mixed to obtain a solution with a concentration of 1mg/mL. The solution was freshly prepared before use, mixed well through vortex, and set aside for later use.
(§3) Healthy male SD rats or dogs were used for this study. All animals were fasted before administration and resumed feeding 4 hours after administration.
(§4) About 0.1 mL of blood was collected via the jugular vein from each animal, using EDTA or heparin sodium as anticoagulants. After collected, the blood sample was placed on ice and centrifuged to separate the plasma (centrifugation conditions: 10000 rpm, 5 minutes, and 4 °C).
(§5) The plasma samples were analyzed by LC-MS/MS by the analysis department of the experimental institution.

in vivo [3] = settings: rat, po, 10 mg/kg
Procedure: as §1, §2, §3, §4, §5

[4] = Pharmacokinetics in dogs after a single dose by gavage; settings: for in vivo exposure levels: dog pharmacokinetic data, compared with free base crystal form I; for AUC0-last / AUCINF / Cmax / T1/2 / Tmax: dogs, single gavage dose 5mpk, 1mg/ml in 0.5%MC+1% tween 80 (Uniform suspension), 5 mg/kg
Procedure: (§6) Blood samples were collected at different time points to determine the drug concentration in the dog plasma after administration of the test substance and relevant pharmacokinetic parameters were calculated.
as §2, §3
(§7) (Time points ≤ 2 hours: ± 2 min; other points: ± 15 min.)
as §4, §5

in vivo [5] = settings: dog, po, 5 mg/kg
Procedure: as §6, §2, §3, §7, §4, §5

[6] = Solid-state stability, 7 days at 60 °C/closed and 40 °C/75% RH (HPLC purity, XRPD); type: physicochemical; settings: for Purity (Area%) 40 °C/ 75%RH / Purity (Area%) 60 °C/ Closed / XRPD 40 °C/ 75%RH / XRPD 60 °C/ Closed: 7 days; for Purity (Area%) 40 °C/ 75%RH / Purity (Area%) 60 °C/ Closed / Initial purity (Area%): HPLC; for Initial purity (Area%): before storage; for XRPD 40 °C/ 75%RH: crystal form after 40 °C/75% RH; for XRPD 60 °C/ Closed: crystal form after 60 °C/closed
Procedure: HPLC analysis was performed using Agilent HPLC 1260 series instruments. Table 37 HPLC Method for Solubility and Stability Tests

physchem [7] = test: physchem
[8] = Rough solubility in 17 solvents by visual inspection at room temperature; settings: for solubility: DMSO
physchem [9] = test: physchem; remark: listed apart in the source
[10] = Solubility test in biological media and water at 37 °C (HPLC; XRPD of residue); settings: for Solubility (µg/mL) 2 h / Solubility (µg/mL) 0.5 h / Solubility (µg/mL) 24 h: calculated using free base; for Solubility (µg/mL) 2 h: 120 min; for Solubility (µg/mL) 24 h: 1440 min
[11] = Evaluation of amorphous free base: suspension stirred in solvent at room temperature for 2 days; type: physicochemical; settings: for Result (solid form obtained): suspension stirred at room temperature for 2 days
Procedure: 100 mg of the amorphous free base sample obtained in the present invention was weighed and a solvent was added to form a suspension. The mixture was stirred at room temperature for 2 days, and the results are as follows: […]

[12] = FaSSIF (pH=6.49), LOQ: ~1.0 µg/mL
[13] = crystal form after 24 h in FaSSIF (pH=6.49)
[14] = crystal form after 24 h in FeSSIF (pH=5.00)
[15] = crystal form after 24 h in SGF (pH=1.19)
[16] = crystal form after 24 h in Water (pH=5.45)

SMILES | in vivo exposure levels [2] | in vivo exposure levels [4] | AUC0-last [4] [ng·h/mL] | AUCINF [4] [ng·h/mL] | Cmax [4] [ng/mL] | T1/2 [4] [h] | Purity (Area%) 40 °C/ 75%RH [6] [Area%] | Purity (Area%) 60 °C/ Closed [6] [Area%] | Initial purity (Area%) [6] [Area%] | XRPD 40 °C/ 75%RH [6] | XRPD 60 °C/ Closed [6] | AUC0-last [2] [ng·h/mL] | AUCINF [2] [ng·h/mL] | Cmax [2] [ng/mL] | T1/2 [2] [h] | Tmax [2] [h] | Tmax [4] [h] | Solubility (µg/mL) 2 h [10, 12] [µg/mL] | XRPD (24 h) [10, 13] | XRPD (24 h) [10, 14] | other results
CO[C@]1(C(=O)N[C@@H](C)c2ccc(-n3cc(F)cn3)nc2)CC[C@H](c2nc(C)cc(Nc3cc(C)[nH]n3)n2)CC1 [BLU-667] | – | – | – | – | – | – | – | – | – | – | – | – | – | – | – | – | – | – | – | – | ORR ([1]; patients with medullary thyroid carcinoma): 40%; ORR ([1]; patients with non-small cell lung cancer): 50%; overall remission rate (ORR) ([1]; tumor patients with RET fusion and mutation): 45%
CCn1ncc2c(Nc3cc(C)[nH]n3)nc([C@H]3CC[C@](OC)(C(=O)N[C@@H](C)c4cnc(-n5cc(F)cn5)cn4)CC3)nc21 [Free base crystal form III] | higher than those of free base crystal form I | higher than those of free base crystal form I | 763.5 | 776.0 | 151.5 | 4.275 | 99.253 | 99.212 | 99.316 | Unchanged | Unchanged | – | – | – | – | – | – | – | – | – | AUC(0-inf) (in vivo [3]): 1260 ng·h/mL; AUC(0-t) (in vivo [3]): 1250 ng·h/mL; Cmax (in vivo [3]): 153 ng/mL; Tmax (in vivo [3]): 6 h; half-life (in vivo [3]): 3.18 h; Tmax (in vivo [5]): 2 h
CCn1ncc2c(Nc3cc(C)[nH]n3)nc([C@H]3CC[C@](OC)(C(=O)N[C@@H](C)c4cnc(-n5cc(F)cn5)cn4)CC3)nc21 [Free base crystal form I] | – | – | 673.5 | 684.0 | 111.7 | 2.835 | – | – | – | – | – | 1172.00 | 1197.00 | 158.00 | 2.69 | 4.67 | 3.0 | – | – | – | solubility (physchem [7]; 2-me-thf): 11100 to 12500 µg/mL (≈ 18.9 to 21.2 mM); solubility (physchem [7]; acetone): 7100 to 8300 µg/mL (≈ 12.1 to 14.1 mM); solubility (physchem [7]; dcm): 4600 to 5000 µg/mL (≈ 7.81 to 8.49 mM); solubility (physchem [7]; ea): 2200 to 2300 µg/mL (≈ 3.74 to 3.91 mM); solubility (physchem [7]; etoh): < 600 µg/mL; solubility (physchem [7]; hept): < 600 µg/mL; solubility (physchem [7]; ipa): < 600 µg/mL; solubility (physchem [7]; ipac): 1500 to 1600 µg/mL (≈ 2.55 to 2.72 mM); solubility (physchem [7]; mek): 6300 to 7100 µg/mL (≈ 10.7 to 12.1 mM); solubility (physchem [7]; meoh): ~1200 µg/mL (≈ 2.04 mM); solubility (physchem [7]; mtbe): < 600 µg/mL; solubility (physchem [7]; n-buoh): < 600 µg/mL; solubility (physchem [7]; thf): > 40000 µg/mL; solubility (physchem [7]; tol): < 600 µg/mL; solubility (physchem [7]; water): < 600 µg/mL; solubility [8]: > 40000 µg/mL; solubility ([8]; listed as free base crystal form I): >166700 µg/mL; Solubility (mg/mL) ([8]; THF): 41.7~50.0 mg/mL
CCn1ncc2c(Nc3cc(C)[nH]n3)nc([C@H]3CC[C@](OC)(C(=O)N[C@@H](C)c4cnc(-n5cc(F)cn5)cn4)CC3)nc21 [Fumarate crystal form I] | higher than those of free base crystal form I | higher than those of free base crystal form I | 3807.0 | 4179.0 | 617 | 6.87 | 97.914 | 98.119 | 98.062 | Unchanged | Unchanged | 1781.00 | 1790.00 | 247.00 | 2.77 | 5.00 | 4.0 | 5.950 | Almost amorphous | Unchanged | solubility at 24 h (physchem [9]; fassif, pH 6.49): 22.7 µg/mL; solubility at 0.5 h (physchem [9]; fessif, pH 5): 84.2 µg/mL; solubility at 2 h (physchem [9]; fessif, pH 5): 28.5 µg/mL; solubility at 24 h (physchem [9]; fessif, pH 5): 20.9 µg/mL; solubility at 0.5 h (physchem [9]; sgf): 210 µg/mL; solubility at 0.5 h (physchem [9]; sgf, pH 1.19): 210 µg/mL; solubility at 2 h (physchem [9]; sgf, pH 1.19): 204 µg/mL; solubility at 24 h (physchem [9]; sgf, pH 1.19): 78.1 µg/mL; XRPD (24 h) [10, 15]: Unchanged; XRPD (24 h) [10, 16]: Unchanged
CCn1ncc2c(Nc3cc(C)[nH]n3)nc([C@H]3CC[C@](OC)(C(=O)N[C@@H](C)c4cnc(-n5cc(F)cn5)cn4)CC3)nc21 [Malate crystal form I] | higher than those of free base crystal form I | higher than those of free base crystal form I | – | – | – | – | 98.742 | 98.753 | 98.772 | Unchanged | Unchanged | 1209.00 | 1217.00 | 177.00 | 2.31 | 3.00 | – | 2.650 | Changed | Almost amorphous | Solubility (µg/mL) 0.5 h ([10]; FeSSIF (pH=5.00), 30 min): 58.771 µg/mL; Solubility (µg/mL) 2 h ([10]; FeSSIF (pH=5.00)): 19.818 µg/mL; Solubility (µg/mL) 24 h ([10]; FeSSIF (pH=5.00)): 16.658 µg/mL; Solubility (µg/mL) 0.5 h ([10]; SGF (pH=1.19), 30 min): 204.753 µg/mL; Solubility (µg/mL) 2 h ([10]; SGF (pH=1.19)): 113.155 µg/mL; Solubility (µg/mL) 24 h ([10]; SGF (pH=1.19)): 79.977 µg/mL; maximum solubility ([10]; SGF medium at 0.5 hours, 30 min): 200 µg/mL; XRPD (24 h) [10, 15]: Changed; XRPD (24 h) [10, 16]: Unchanged
CCn1ncc2c(Nc3cc(C)[nH]n3)nc([C@H]3CC[C@](OC)(C(=O)N[C@@H](C)c4cnc(-n5cc(F)cn5)cn4)CC3)nc21 [amorphous free base] | – | – | – | – | – | – | – | – | – | – | – | – | – | – | – | – | – | – | – | – | Result (solid form obtained) ([11]; Acetone): Free base crystal form III; Result (solid form obtained) ([11]; Methanol): Free base crystal form I; stability of the solid form in the solvent ([11]; suspension in methanol or acetone, room temperature, 2 days): unstable and easily transformed into other crystal forms
